In patent US9522928B2, “Mannosylated compounds useful for the prevention and the treatment of infectious diseases” (UNIVERSITE DE STRASBOURG, priority 2011, dated 2016):
“Also recorded” adds a separate entry of the source. Read-outs that look alike come from different tables or passages of the source.

Tests used:
[1] = Hydrodynamic diameter of micelles (Zetasizer Nano ZS); format: physicochemical; conditions: in water at 0.5 mg/ml
Procedure: DiManinsatC24 was prepared according a procedure similar to that used for the preparation of TriDiManC24 except that: • pentacosanoic acid was replaced by 10,12-pentacosadiynoic acid, and • before the coupling with 10,12-pentacosadiynoic acid, the benzyl groups of compound 33 were replaced by acetyl group so as to provide compound 108 (as illustrated in FIG. 3E). ^1H NMR δ(ppm) (MeOD, 400 MHz) 4.87 (s, 3H), 4.73 (s, 3H), 3.64-3.50 (m, 14H), 3.46-3.20 (m, 76H), 2.97-2.93 (m, 6H), 2.33 (t, 6H, J=6.8 Hz), 2.09-1.96 (m, 6H), 1.08-1.05 (m, 32H), 0.66 (t, 3H, J=6.8 Hz). ^13C NMR δ (ppm) (MeOD, 100 MHz) 173.7, 168.8, 104.2, 101.2, 80.6, 80.4, 75.1, 74.7, 72.5, 72.2, 72.1, 71.9, 71.8, 71.7, 71.6, 71.4, 69.4, 69.1, 68.9, 68.7, 68.6, 68.0, 63.2, 63.1, 42.2, 37.0, 34.8, 33.7, 33.1, 30.8, 30.7, 30.6, 30.5, 30.4, 30.2, 29.5, 28.1, 27.0, 26.0, 23.7, 19.7, 14.4. IR (neat film, cm^−1): 3353, 2924, 1716, 1636, 1350, 1182, 1095, 1035, 1009, 837, 669. • Determination of critical micelle concentrations (CMCs) and size of particles. The hydrodynamic diameters of micelles of glycolipids were measured in water using a Zetasizer Nano ZS system (Malvern Instruments). The CMCs were measured using pyrene as an extrinsic fluorescent probe and were carried out as described (Perino et al., 2011). Briefly, a range of glycolipid samples were dissolved in water (1 ml), with concentrations ranging from 1.0 to 0.001 mg/ml. A stock solution of pyrene (1 mM) was prepared in dimethyl sulfoxyde and was added to each sample. Fluorescent emission of pyrene was measured at 25° C. using a Fluorolog spectrofluorometer (Jobin Yvon, Horiba). The intensities of fluorescence emission were determined at 374 nm (I374) and at 383 nm (I383), with an excitation at a 339 nm wavelength. The ratios I374/I383 were calculated and plotted against the glycolipid concentration. The CMC value was determined at the intersection of the two straight lines.

DC-SIGN CRD = biological target: T1, DC-SIGN CRD (Homo sapiens, UniProt Q9NNX6); experiment: Surface plasmon resonance (SPR) binding to immobilised DC-SIGN CRD
T1 construct: human DC-SIGN (Lys62-Ala404, from R§D Systems); purchased R&D Systems ('R§D Systems' [sic])
T1 sequence (Q9NNX6 62-404): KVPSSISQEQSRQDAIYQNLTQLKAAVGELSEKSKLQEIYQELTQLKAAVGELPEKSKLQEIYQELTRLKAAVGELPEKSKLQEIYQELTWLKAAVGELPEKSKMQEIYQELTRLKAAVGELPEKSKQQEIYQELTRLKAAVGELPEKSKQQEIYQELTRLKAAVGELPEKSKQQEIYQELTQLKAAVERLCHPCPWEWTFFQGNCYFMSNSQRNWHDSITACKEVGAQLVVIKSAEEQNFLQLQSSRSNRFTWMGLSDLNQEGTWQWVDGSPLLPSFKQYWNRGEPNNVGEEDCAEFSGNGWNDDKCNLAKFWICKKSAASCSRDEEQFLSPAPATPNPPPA
Procedure: SPR experiments were performed using a Biacore 3000. […] Biosensor assays were performed with HEPES-buffered saline (10 mM HEPES, 150 mM sodium chloride, pH 7.4) containing 0.005% surfactant P20 and 5 mM CaCl2 as a running buffer. All binding experiments were carried out at 25° C. with a constant flow rate of 20 μl/min. The different compounds dissolved in the running buffer (0.39 to 50 μM) were injected for 3 min, followed by a dissociation phase of 3 min. The sensor chip surface was regenerated after each experiment by injecting 10 μL of EDTA 0.5 M pH 8.0. A simple channel activated by EDC/NHS and deactivated with ethanolamine was used as control. The kinetic parameters were calculated using the BlAeval 4.1 software. Analysis was performed using the simple Langmuir binding model with separate ka/kd (kon/koff). The specific binding profiles were obtained after subtracting the response signal from the control channel and from blank-buffer injection. The fitting to each model was judged by the chi square value and randomness of residue distribution compared to the theoretical model (Langmuir binding 1:1).
The binding affinity of mannoside derivatives for the carbohydrate recognition domain (CRD) of DC-SIGN was assessed by surface plasmon resonance (SPR).
A CM5 sensor chip was functionalized with the DC-SIGN CRD, and increasing concentrations of the various compounds, mannan as a positive control and octaethyleneglycol (OEG) as a negative control, were injected over the chip surface. The association (kon) and dissociation (koff) rate constants and the resulting dissociation equilibrium constant (Kd=koff/kon) for each assessed compound were determined (see Table 1 hereunder).

HIV-1 R5 = HIV-1 R5 trans-infection of MAGI-CCR5 cells mediated by DCs; format: cell-based; conditions: for inhibition of HIV-1 trans-infection (in words): HIV-1 R5 where stated
Procedure: ManC1, […] (comparative) and compounds of the invention (ManC24, ManC17, TriManC24, TriDiManC24, TriManinsatC24 and ManinsatC24) were serially diluted in water. Human DCs (1×10^5 in 200 μl ) were pre-treated with different concentrations of compounds, or mannan (Sigma) or culture medium alone, in RPMI 1640 medium containing 10% FBS for 45 min at 37° C., prior infection with HIV-1 (100 ng of p24Gag) for 3 h. Excess free virus and molecules were removed by three washes. DCs were then cocultured with MAGI -CCR5 cells (1×10^5) at 37° C. plated in a 48-well plate. After two days, viral infection of MAGI-CCR5 cells was quantitated following beta-galactosidase assays and enumerating blue cells by light microscopy.
The IC50 were determined by serial dilution of each compound. The trans-infection assays were repeated a minimum of three times, and the IC50 determined using KaleidaGraph.
To investigate the ability of the compounds of the invention to inhibit HIV-1 trans infection, we chose to infect human DCs in order to best mimic in vivo conditions. Human DCs were exposed to different compounds (namely, Mannan (control), ManC1 (comparative), ManC11 (comparative), ManC17, ManC24, TriManC24, TriDiManC24, ManinsatC24 and TriManinsatC24) for 45 min at 37° C., before inoculation with HIV-1 (strains R5 and X4) for 3 hours. After extensive washings to remove unbound virions and mannosides, DCs were then co-cultured with MAGI-CCR5 cells. This procedure allows precise quantification of HIV-1 replication in reporter MAGI-CCR5 cells by detection of beta-galactosidase activity. These cells express an integrated copy of the HIV long terminal repeat (LTR) fused to the beta-galactosidase reporter gene, and express the CD4 receptor and the CCR5 and CXCR4 co-receptors, required for entry of HIV-1 R5 and X4 respectively. Upon viral entry leading to viral Tat expression and activation of the LTR, these cells permit quantification of HIV trans-infection after two days.

[2] = Human immunodeficiency virus 1, MAGI-CCR5, read-out: IC50 of HIV-1 trans-infection

SMILES	hydrodynamic diameter of micelles [1]	binding to DC-SIGN CRD (in words) (DC-SIGN CRD)	Kon (M^−1 · s^−1) (DC-SIGN CRD; 25° C., Langmuir 1:1)	inhibition of HIV-1 trans-infection (in words) (HIV-1 R5)	IC50 (HIV-1 R5; [2])	koff (DC-SIGN CRD; 25° C., Langmuir 1:1)	kon (DC-SIGN CRD; 25° C., Langmuir 1:1)	KD (μM) (DC-SIGN CRD; Kd=koff/kon)	Kd (DC-SIGN CRD; Kd=koff/kon)	residual level of trans-infection (HIV-1 R5; HIV-1 R5, highest concentrations, relative to medium alone)	IC50 (HIV-1 R5; Human immunodeficiency virus 1, MAGI-CCR5, HIV-1 R5, read-out: IC50 of HIV-1 trans-infection)
CCCCCCCCCCCCCCCCCC(=O)NCCOCCOCCOCC(=O)NCCOCCOCCOCCOC1OC(CO)C(O)C(O)C1O (stereo not shown) [ManC17]	17 nm	bound with a low affinity	Low binding	reduced trans-infection in a dose -dependent manner; also recorded: able to inhibit trans-infection to a similar extent; also recorded: inhibited in a dose -dependent manner	120 µM	–	–	–	–	–	–
CCCCCCCCCCCCCCCCCCCCCCCCC(=O)NCCOCCOCCOCC(=O)NCCOCCOCCOCCOC1OC(CO)C(O)C(O)C1O (stereo not shown) [ManC24]	17 nm	–	–	reduced trans-infection in a dose -dependent manner; also recorded: able to inhibit trans-infection to a similar extent; also recorded: inhibited in a dose -dependent manner	120 µM	9e-05 s⁻¹	273 M⁻¹ s⁻¹	sub-micromolar range	–	–	–
CCCCCCCCCCCCC#CC#CCCCCCCCCC(=O)NCCOCCOCCOCC(=O)NCCOCCOCCOCCO[C@H]1O[C@H](CO)[C@@H](O)[C@H](O)[C@@H]1O [ManinsatC24]	–	–	–	–	–	0.00138 s⁻¹	538 M⁻¹ s⁻¹	–	2.57 µM	15%	61 µM
